Reference: ChEMBL document CHEMBL3046499, “Synthesis of 2,2-diphenylpropionate derivatives and their effects on larval growth of the silkworm” (2000)
Calls of active or inactive are those of the source. No cut-off for these calls is given here.

Experiments:
Bombyx mori [1] = test: Insecticidal activity against fourth-instar larval stage of Bombyx mori Shunrei x Shongetsu assessed as fourth-instar larval duration time at 100 ppm administered through artificial diet (reference value: 5.1 +/- 0.2 days); assay type: functional
Bombyx mori [2] = test: Insecticidal activity against fourth-instar larval stage of Bombyx mori Shunrei x Shongetsu assessed as fourth-instar larval duration time at 30 ppm administered through artificial diet (reference value: 5.1 +/- 0.2 days); assay type: functional
Bombyx mori [3] = test: Insecticidal activity against fourth-instar larval stage of Bombyx mori Shunrei x Shongetsu assessed as delay in increase of hemolymph 20-hydroxyecdysone level at 50 ppm administered through artificial diet measured for 5 days post third ecdysis by ELISA relative to acetone-treated control; assay type: functional, organism-based

CCN1CCN(CCOC(=O)C(C)(c2ccccc2)c2ccccc2)CC1
Time (Bombyx mori [1]): 6.2 days | Time (Bombyx mori [2]): 5.1 days

CN1[C@@H]2CC[C@H]1CC(OC(=O)[C@H](CO)c1ccccc1)C2 (stereo partly drawn) [ENDO-ATROPINE]
Time (Bombyx mori [1]): 6.3 days | Time (Bombyx mori [2]): 5.2 days

CN1C2CCC1CC(OC(=O)C(C)(c1ccccc1)c1ccccc1)C2 (stereo unspecified)
Time (Bombyx mori [2]): 6.1 days

CCN1CCN(CCCCCOC(=O)C(C)(c2ccccc2)c2ccccc2)CC1
Time (Bombyx mori [1]): 5.8 days | Time (Bombyx mori [2]): 5.1 days

CCN1CCN(CCCOC(=O)C(C)(c2ccccc2)c2ccccc2)CC1
Time (Bombyx mori [1]): 7.2 days | Time (Bombyx mori [2]): 6.5 days | Activity (Bombyx mori [3]): Active

CN(CCCOC(=O)C(C)(c1ccccc1)c1ccccc1)C1CCCCC1
Time (Bombyx mori [1]): 5.6 days | Time (Bombyx mori [2]): 5 days

CC(C(=O)OCCCN1CCOCC1)(c1ccccc1)c1ccccc1
Time (Bombyx mori [1]): 6.1 days | Time (Bombyx mori [2]): 5 days

CC(C(=O)OCCCN1CCCC1)(c1ccccc1)c1ccccc1
Time (Bombyx mori [1]): 6 days | Time (Bombyx mori [2]): 5.2 days

CC(C(=O)OCCCN1CCCCC1)(c1ccccc1)c1ccccc1
Time (Bombyx mori [1]): 7.4 days | Time (Bombyx mori [2]): 5.1 days

CCN1CCN(CCCCCCOC(=O)C(C)(c2ccccc2)c2ccccc2)CC1
Time (Bombyx mori [1]): 4.5 days | Time (Bombyx mori [2]): 4.7 days

CCN(CC)CCCOC(=O)C(C)(c1ccccc1)c1ccccc1
Time (Bombyx mori [1]): 5.2 days | Time (Bombyx mori [2]): 5.1 days

CN1CCN(CCCOC(=O)C(C)(c2ccccc2)c2ccccc2)CC1
Time (Bombyx mori [1]): 7.5 days | Time (Bombyx mori [2]): 6.9 days

CCN1CCN(CCCCOC(=O)C(C)(c2ccccc2)c2ccccc2)CC1
Time (Bombyx mori [1]): 6.1 days | Time (Bombyx mori [2]): 5.6 days
